Experiment [1] addresses T1, TRAP5a (Homo sapiens, UniProt P13686).
T1 construct: Serum-derived TRAP5a and TRAP5b were separated by ion exchange chromatography; from tissue; host or cells: human serum
T1 sequence (P13686 22-325): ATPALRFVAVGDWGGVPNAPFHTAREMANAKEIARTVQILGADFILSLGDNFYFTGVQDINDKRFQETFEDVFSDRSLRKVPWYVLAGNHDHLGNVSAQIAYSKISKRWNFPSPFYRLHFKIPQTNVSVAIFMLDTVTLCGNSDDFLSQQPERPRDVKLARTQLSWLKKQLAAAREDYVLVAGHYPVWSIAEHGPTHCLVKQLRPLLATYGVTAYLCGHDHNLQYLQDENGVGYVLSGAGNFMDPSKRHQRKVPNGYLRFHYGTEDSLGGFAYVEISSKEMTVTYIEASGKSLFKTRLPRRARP
Briefly: Activity with phthalein monophosphate esters at 0.47 mg/mL, pH 7.4 (Example 8). The format is biochemical. On the set-up: unit not given beside the values. The settings on record: 0.47 mg/mL in 100 mM MES pH7.4. On the procedure:
(§1) To test for activity towards PTMP, 100 μL of a solution containing 6 mg/mL PTMP dissolved in 125 mM MOPS buffer, pH 7.0 was added per well and incubated for 0-40 min at 37° C. The reactions were stopped at the times indicated by the addition of 50 μL per well of 1M glycine/NaOH, pH11 and the absorbance at […] was measured. To test for activity towards TTMP, 100 μL of a solution containing 5 mg/mL TTMP dissolved in 80 mM MOPS buffer, 10% ethanol, pH 7.0 was added per well and incubated for 0-40 min at 37° C. The reactions were stopped at the times indicated by the addition of 50 μL per well of 0.25 M NaOH and the absorbance at […] was measured.
(§2) Where phthalein monophosphate esters were not available commercially, the monophosphate esters were prepared by the method of Bulbenko & Woodbridge (U.S. Pat. No. 4,045,290) by reaction of the appropriate phthalein compound (from Sigma-Aldrich) with phosphorus oxychloride (CAS 10025-87-3), followed by hydrolysis and purification. The monophosphate esters were further purified before use by HPLC chromatography to remove un-reacted phthalein dye. HPLC column 10 mm×150 mm ACE 5 C18 (Advance Chromatography Technologies, UK), load solvent composition, 30% methanol and 70% water containing 0.1% trifluoroacetic acid (TFA); product was eluted by a gradient from 30% methanol 0.1% TFA to 100% methanol 0.1% TFA at 3 mL/minute over 45 minutes.
(§3) Phthalein monophosphate esters prepared in Example 7 were diluted to 0.47 mg/mL in 100 mM MES pH7.4 buffer and applied to an assay as in Example 1.

In experiment [2] the test system is TRAP5b. The description is as above. The settings on record: 0.47 mg/mL in 100 mM MES pH7.4. The format is biochemical, human. Set-up: 5b Activity: unit not given here. The method, then: as §1, §2, §3
For experiment [3], the target named is T1, TRAP5a. Nature of the experiment: Assay of CM-Sepharose fractions of normal human serum with pNPP- and PTMP-based assays (Example 4, FIG. 3). The format is biochemical. The text has this: TRAP5a and TRAP5b from normal human serum were separated on a CM-Sepharose column and the fractions assessed for TRAP5b using the pNPP and PTMP-based assays described in Example 3.

Experiment [4] has as its system TRAP5b. Briefly: TRAP5 capture immunoassay, specific activity with each substrate (Example 3). The format is biochemical, human. To be noted: for Ratio 5B:5A of specific activity / TRAP5 Specific Activity 5B: pNPP at pH 6.1, PTMP and TTMP at pH 7.0; for TRAP5 Specific Activity 5B: serum-derived TRAP5b. The method, then:
(§4) Microtitre plates (Nunc Maxisorp) were coated with mouse anti-TRAP5 (clone O1A), from a solution of a 3.0 mg/L purified Mab IgG in 10 mM phosphate buffered saline (PBS), 100 μL per well and incubated overnight at room temperature. The coated plates were washed three times with 10 mM phosphate buffered saline, 0.05% Tween 20. A stabilising reagent of 5% lactose, 0.5% BSA was added, 250 μL per well, incubated for at least 10 minutes, then the liquid aspirated. The coated plates were dried overnight at 35° C. then stored at 2-8° C. protected from moisture.
(§5) Serum-derived TRAP5a and TRAP5b were separated by ion exchange chromatography using a modification of the procedure described by Lam et al, Clin. Chem. 24(7):1105-1108, 1978. 100-500 mL human serum was adjusted to around pH 5.0 with 100% acetic acid, and optionally diluted with an equal volume of 10 mM sodium phosphate buffer, pH 4.9. After clarification by centrifugation and filtering, the acidified serum was applied to a 1 cm×100-150 cm column of CM-Sepharose (Sigma, part No CCF 100) and the column was developed with a linear NaCl gradient, from 150-800 mM. Fractions containing TRAP5a and TRAP5b activity were identified using a non-capture assay essentially as described by Lam et al Clin. Chem. 24(7):1105-1108, 1978. In some instances the fractions were further assayed for TRAP5 by the immunoassays described below. Fractions containing peak levels of TRAP5a or TRAP5b were separately pooled for further analysis.
The TRAP5 protein concentration in the TRAP5a and TRAP5b preparations was determined by a sandwich immunoassay. 100-200 μL sample per well was applied to O1A-coated microtitre plates and incubated overnight at 4° C. The plate was washed three times with 10 mM phosphate buffered saline, 0.05% Tween 20, and 100-200 μL of a solution containing the rabbit anti-TRAP5 antibody at a dilution of 1:4000 was added per well. After 60 min incubation at ambient temperature the plate was washed as above and 100-200 μL of a solution containing anti-rabbit IgG-Horseradish peroxidase conjugate at a dilution of 1:5000 was added and incubated for 30 min at ambient temperature. After further washing as described above […] of TMB (BioFx Inc, part TMBW-0100-01) was added and incubated for 30 min at ambient temperature. The reactions were stopped by the addition of 100 μL 0.5M HCl and the absorbance at 450 nm was measured. TRAP5 protein concentrations were calculated by reference to a calibration curve prepared from baculovirus-derived recombinant human TRAP5.
as §1
TRAP5a and TRAP5b preparations were prepared and quantified with respect to TRAP5 mass as described in Example 3. A set of TRAP5 calibrators was prepared by incubating 225 μg baculovirus-derived recombinant human TRAP with 12 U chymotrypsin for 6 h at ambient temperature, preparing a series of dilutions from this material and assigning TRAP5 concentrations (in U/L) to these dilutions using the commercial TRAP5b immunoassay based on WO1999/050662. The TRAP5a and TRAP5b preparations were assayed by a commercial TRAP5b immunoassay based on WO1999/050662 which uses pNPP as substrate at pH 6.1 with the modification that the chymotrypsin-treated calibrators described above were substituted for those provided by the manufacturer. […]

In experiment [5] the target is T1, TRAP5a. The description is as above. The format is biochemical. The settings on record: for TRAP5 Specific Activity 5A: serum-derived TRAP5a, pNPP at pH 6.1, PTMP and TTMP at pH 7.0. The method, then:
as §4, §5
(§6) The TRAP5 protein concentration in the TRAP5a and TRAP5b preparations was determined by a sandwich immunoassay. 100-200 μL sample per well was applied to O1A-coated microtitre plates and incubated overnight at 4° C. The plate was washed three times with 10 mM phosphate buffered saline, 0.05% Tween 20, and 100-200 μL of a solution containing the rabbit anti-TRAP5 antibody at a dilution of 1:4000 was added per well. […] The reactions were stopped by the addition of 100 μL 0.5M HCl and the absorbance at 450 nm was measured. TRAP5 protein concentrations were calculated by reference to a calibration curve prepared from baculovirus-derived recombinant human TRAP5.
(§7) To test for activity towards PTMP, 100 μL of a solution containing 6 mg/mL PTMP dissolved in 125 mM MOPS buffer, pH 7.0 was added per well and incubated for 0-40 min at 37° C. The reactions were stopped at the times indicated by the addition of 50 μL per well of 1M glycine/NaOH, pH11 and the absorbance at […] was measured. […] The reactions were stopped at the times indicated by the addition of 50 μL per well of 0.25 M NaOH and the absorbance at […] was measured.
TRAP5a and TRAP5b preparations were prepared and quantified with respect to TRAP5 mass as described in Example 3. […]

The subject of experiment [6] is TRAP5b. To be noted: WO1999/050662 (pNPP), EP1598670 (2-chloro-4-nitrophenylphosphate); cited from earlier work.
In experiment [7] the target is T1, TRAP5a. Nature of the experiment: pH vs activity profile (Example 2, FIG. 2). The format is biochemical. The settings on record: substrate 6 mg/mL in MES or MOPS buffers. The method, then: (§8) Since TRAP5 is an acid phosphatase that normally is only active under acidic conditions, the relationship between TRAP5a and TRAP5b enzyme activity and substrate pH using PTMP as substrate over a range of pH values was investigated. The TRAP5 assays were performed essentially as described for Example 1, except that the PTMP substrate was dissolved at 6 mg/mL in a series of 100 mM MES or 100 mM MOPS buffers to give the pH values indicated.

The test system of experiment [8] is TRAP5b. Nature of the experiment: Time course of substrate hydrolysis on O1A-coated plates (Example 1, FIG. 1). The format is biochemical, human. The method, then: as §4, §5, §6, §7
Experiment [9] deals with TRAP5b. Briefly: pH vs activity profile (Example 2, FIG. 2). To be noted: substrate 6 mg/mL in MES or MOPS buffers. The format is biochemical, human. The method, then:
as §8

Experiment [10] deals with T1, TRAP5a. Nature of the experiment: Time course of substrate hydrolysis on O1A-coated plates (Example 1, FIG. 1). The format is biochemical. To be noted: serum-derived TRAP5a; neutral pH (7.0) in Example 1. The method, then:
Microtitre plates (Nunc Maxisorp) were coated with mouse anti-TRAP5 (clone O1A), from a solution of a 3.0 mg/L purified Mab IgG in 10 mM phosphate buffered saline (PBS), 100 μL per well and incubated overnight at room temperature. The coated plates were washed three times with 10 mM phosphate buffered saline, 0.05% Tween 20. A stabilising reagent of 5% lactose, 0.5% BSA was added, 250 μL per well, incubated for at least 10 minutes, then the liquid aspirated. The coated plates were dried overnight at 35° C. then stored at 2-8° C. protected from moisture. […]
The TRAP5 protein concentration in the TRAP5a and TRAP5b preparations was determined by a sandwich immunoassay. […] The reactions were stopped by the addition of 100 μL 0.5M HCl and the absorbance at 450 nm was measured. TRAP5 protein concentrations were calculated by reference to a calibration curve prepared from baculovirus-derived recombinant human TRAP5.
as §7

Several values for one entry are separate records, joined by “and”; a condition that tells them apart may be missing. Identical values can stand only once. Entries after “also recorded” stand apart in the source; their conditions may differ.

As to `O=P(O)(O)Oc1ccc(C2(c3ccc(O)cc3)OS(=O)(=O)c3ccccc32)cc1` (stereo not shown) [Phenol Red, Phenol Red monophosphate], at TRAP5a [1], the “5a Activity” value is 0.0067. For the same molecule, in the experiment on TRAP5b [2], the “5b Activity” value was found to be 0.3558 and the “Ratio of 5b:5a activity” value amounted to 53.1.

For the molecule `O=P(O)(O)Oc1ccc(C2(c3ccc(O)c(Cl)c3)OS(=O)(=O)c3ccccc32)cc1Cl` (stereo not shown) [Chlorophenol Red, Chlorophenol Red monophosphate], the “5a Activity” value on TRAP5a [1] is 0.0067. Moreover, in the experiment with TRAP5b [2], the “5b Activity” value is on record as 0.3558 and the “Ratio of 5b:5a activity” value is recorded as 53.1.

As to `O=[N+]([O-])c1ccc(OP(=O)(O)O)cc1` [pNPP, p-nitrophenyl phosphate, reference compound], the “share of the material measured as TRAP5b that is actually TRAP5a” value on TRAP5a [3] (normal human serum, CM-Sepharose fractions) was “around 40%”. Besides, in the experiment on TRAP5b [4], the “Ratio 5B:5A of specific activity” value is 9 and 9.04; the “TRAP5 Specific Activity 5B” value turned out to be 1.60 U/μg. Moreover, the “TRAP5 Specific Activity 5A” value at TRAP5a [5] is recorded as 0.177 U/μg. The “pH optimum of TRAP5b” value in the experiment with TRAP5b [6] is given as roughly 5.9 pH.

Turning to `O=C1OC(c2ccc(O)cc2)(c2ccc(OP(=O)(O)O)cc2)c2ccccc21` (stereo not shown) [PTMP, Phenolphthalein monophosphate], the “pH of maximal activity (pH optimum) of TRAP5a” value at TRAP5a [7] is roughly 6.0 pH. The “TRAP5a detected, as share of the TRAP5a detected by the pNPP-based assay” value on TRAP5a [3] (peak TRAP5a fraction 53) stood at 16%. Besides, in the experiment on TRAP5b [4], the “Ratio 5B:5A of specific activity” value stood at 47.5 and the “TRAP5 Specific Activity 5B” value was determined as 1.68 U/μg. The “specificity for TRAP5b over TRAP5a compared with the commercial pNPP based assay” value in the experiment with TRAP5b [4] (relative to pNPP-based assay) is roughly 4.75 fold. In addition, the “specific activity of TRAP5b relative to that of TRAP5a” value in the experiment on TRAP5b [8] (pH 7.0, from FIG. 1) is “approximately 50 times”. The “hydrolysis of substrate by TRAP5b” value in the experiment on TRAP5b [8] (serum-derived TRAP5b, neutral pH (7.0) in Example 1) is on record as “readily hydrolyze; also recorded: hydrolised”. The “5a Activity” value on TRAP5a [1] amounted to 0.0110. Besides, the “TRAP5a detected, as share of the TRAP5a detected by the pNPP-based assay” value on TRAP5a [5] (from specific activities, PTMP pH 7.0 vs pNPP pH 6.1) was 20%. Besides, the “TRAP5 Specific Activity 5A” value at TRAP5a [5] was determined as 0.035 U/μg. The “pH of maximal activity (pH optimum) of TRAP5b” value in the experiment with TRAP5b [9] turned out to be 7.0 pH. The “hydrolysis of substrate by TRAP5a” value on TRAP5a [10] is reported as “readily hydrolyze; also recorded: hydrolised”. Moreover, in the experiment on TRAP5b [2], the “5b Activity” value stood at 0.3664 and the “Ratio of 5b:5a activity” value was 33.3.

Source of the values: patent US20110105349A1, “USE OF A MONOPHOSPHATE ESTER OF A PHTHALEIN COMPOUND AS A SUBSTRATE FOR TARTRATE-RESISTANT ACID PHOSPHATASE B5 (TRAP 5B)” (MUNODIAGNOSTIC SYSTEMS LIMITED, priority 2008, published 2011).
